Test results reported in the supplement of paper PMC10307832.

Legend:
Test in all cases: relative viability (nuclei count vs DMSO), 5 days (fraction); higher = more cells survive
FH535 + Tozasertib = compound: CC1=C(C=CC(=C1)[N+](=O)[O-])NS(=O)(=O)C2=C(C=CC(=C2)Cl)Cl [FH535] + Cc1cc(Nc2cc(N3CCN(C)CC3)nc(Sc3ccc(NC(=O)C4CC4)cc3)n2)n[nH]1 [Tozasertib] (partner 0.1 µM)
Method in brief: (§1)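 One day after seeding in 1536-well plates, lung cancer cell lines were dosed by pin tool. Dosing was either single-drug or a fixed anchor-drug dose plus five library-drug doses (not always all listed) in √10 steps. After 5 days, nuclei were stained in one fix-and-stain step and counted on 4× images, and relative viability is the nuclei count of treated wells over that of vehicle wells, given as the median of duplicate plates.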

FH535 + OSI-027 = compound: CC1=C(C=CC(=C1)[N+](=O)[O-])NS(=O)(=O)C2=C(C=CC(=C2)Cl)Cl [FH535] + COc1cccc2cc(-c3nc([C@H]4CC[C@H](C(=O)O)CC4)n4ncnc(N)c34)[nH]c12 [OSI-027] (partner 0.5 µM)
Method in brief: as §1

FH535 + Navitoclax = compound: CC1=C(C=CC(=C1)[N+](=O)[O-])NS(=O)(=O)C2=C(C=CC(=C2)Cl)Cl [FH535] + CC1(C)CCC(c2ccc(Cl)cc2)=C(CN2CCN(c3ccc(C(=O)NS(=O)(=O)c4ccc(N[C@H](CCN5CCOCC5)CSc5ccccc5)c(S(=O)(=O)C(F)(F)F)c4)cc3)CC2)C1 [Navitoclax] (partner 0.5 µM)
Method in brief: as §1

FH535 + Olaparib = compound: CC1=C(C=CC(=C1)[N+](=O)[O-])NS(=O)(=O)C2=C(C=CC(=C2)Cl)Cl [FH535] + O=C(c1cc(Cc2n[nH]c(=O)c3ccccc23)ccc1F)N1CCN(C(=O)C2CC2)CC1 [Olaparib] (partner 8 µM)
Method in brief: as §1

FH535 + Trametinib = compound: CC1=C(C=CC(=C1)[N+](=O)[O-])NS(=O)(=O)C2=C(C=CC(=C2)Cl)Cl [FH535] + CC(=O)Nc1cccc(-n2c(=O)n(C3CC3)c(=O)c3c(Nc4ccc(I)cc4F)n(C)c(=O)c(C)c32)c1 [Trametinib] (partner 0.02 µM)
Method in brief: as §1

Cell Line | relative viability (FH535 + Tozasertib; first compound 0.04 µM) | relative viability (FH535 + Tozasertib; first compound 0.1265 µM) | relative viability (FH535 + Tozasertib; first compound 0.4 µM) | relative viability (FH535 + Tozasertib; first compound 1.265 µM) | relative viability (FH535 + OSI-027; first compound 0.04 µM) | relative viability (FH535 + OSI-027; first compound 0.1265 µM) | relative viability (FH535 + OSI-027; first compound 0.4 µM) | relative viability (FH535 + OSI-027; first compound 1.265 µM) | relative viability (FH535 + Navitoclax; first compound 0.04 µM) | relative viability (FH535 + Navitoclax; first compound 0.1265 µM) | relative viability (FH535 + Navitoclax; first compound 0.4 µM) | relative viability (FH535 + Navitoclax; first compound 1.265 µM) | relative viability (FH535 + Olaparib; first compound 0.04 µM) | relative viability (FH535 + Olaparib; first compound 0.1265 µM) | relative viability (FH535 + Olaparib; first compound 0.4 µM) | relative viability (FH535 + Olaparib; first compound 1.265 µM) | relative viability (FH535 + Trametinib; first compound 0.04 µM) | relative viability (FH535 + Trametinib; first compound 0.1265 µM) | relative viability (FH535 + Trametinib; first compound 0.4 µM) | relative viability (FH535 + Trametinib; first compound 1.265 µM)
HCC-78 | 0.462 | 0.397 | 0.409 | 0.414 | 0.374 | 0.334 | 0.357 | 0.38 | 0.612 | 1.04 | 0.782 | 0.718 | 0.695 | 0.764 | 0.885 | 0.673 | 0.694 | 0.713 | 0.602 | 0.665
HCC-366 | 0.0788 | 0.106 | 0.123 | 0.0854 | 0.695 | 0.862 | 1.09 | 0.756 | 0.942 | 1.08 | 0.995 | 0.976 | 0.302 | 0.333 | 0.373 | 0.332 | 0.379 | 0.387 | 0.274 | 0.34
HCC-827 | 0.425 | 0.452 | 0.433 | 0.347 | 0.798 | 0.821 | 0.754 | 0.664 | 0.994 | 1.08 | 0.973 | 0.732 | 0.627 | 0.676 | 0.574 | 0.359 | 0.504 | 0.545 | 0.538 | 0.42
HOP-62 | 0.407 | 0.362 | 0.348 | 0.412 | 0.77 | 0.779 | 0.678 | 0.713 | 0.997 | 1.08 | 0.916 | 0.779 | 0.278 | 0.36 | 0.4 | 0.453 | 0.374 | 0.373 | 0.391 | 0.355
IA-LM |  |  |  |  |  |  |  |  | 0.917 | 0.621 | 0.593 | 0.496 | 0.768 | 0.732 | 0.712 | 0.503 |  |  |  | 
LC-2-ad | 0.437 | 0.439 | 0.578 | 0.457 | 0.66 | 0.799 | 0.796 | 0.577 | 0.34 | 0.491 | 0.549 | 0.325 | 0.74 | 0.703 | 0.713 | 0.526 | 0.886 | 0.878 | 0.88 | 0.766
LCLC-97TM1 | 0.229 | 0.284 | 0.282 | 0.161 | 0.431 | 0.49 | 0.441 | 0.395 |  | 0.446 | 0.392 | 0.304 | 0.407 | 0.342 | 0.314 | 0.274 | 0.175 | 0.191 | 0.178 | 0.203
LCLC-103H | 0.417 | 0.521 | 0.516 | 0.453 | 0.448 | 0.383 | 0.341 | 0.42 |  |  |  |  | 0.757 | 0.774 | 0.75 | 0.474 | 0.711 | 0.665 | 0.707 | 0.5
LK-2 | 0.166 | 0.172 | 0.169 | 0.201 | 0.181 | 0.208 | 0.2 | 0.155 | 0.788 | 0.855 | 1 | 1.06 | 0.579 | 0.615 | 0.942 | 0.735 | 0.637 | 0.688 | 0.81 | 0.732
LOU-NH91 | 0.634 | 0.68 | 0.633 | 0.33 | 0.708 | 0.815 | 0.557 | 0.397 | 0.602 | 0.736 | 0.695 | 0.233 | 0.876 | 0.905 | 0.793 | 0.421 | 0.729 | 0.819 | 0.75 | 0.525
LU99A | 0.297 | 0.281 | 0.329 | 0.273 | 0.241 | 0.304 | 0.284 | 0.279 | 0.716 | 0.667 | 0.844 | 0.844 | 0.246 | 0.28 | 0.274 | 0.283 | 0.475 | 0.572 | 0.576 | 0.338
NCI-H358 | 0.0899 | 0.0929 | 0.104 | 0.0851 | 0.737 | 0.536 | 0.648 | 0.476 |  |  |  |  | 0.558 | 0.611 | 0.589 | 0.635 | 0.134 | 0.143 | 0.124 | 0.127
NCI-H522 | 0.529 | 0.502 | 0.601 | 0.534 | 0.7 | 0.767 | 0.734 | 0.636 |  |  |  |  | 0.686 | 0.717 | 0.632 | 0.467 | 0.731 | 0.968 | 0.804 | 0.622
NCI-H650 | 0.603 | 0.783 | 0.766 | 0.51 | 0.465 | 0.515 | 0.433 | 0.344 |  |  |  |  | 0.384 | 0.341 | 0.369 | 0.249 | 0.887 | 0.953 | 1.04 | 0.795
NCI-H661 | 0.365 | 0.339 | 0.346 | 0.332 | 0.688 | 0.704 | 0.67 | 0.46 |  |  |  |  | 0.729 | 0.743 | 0.66 | 0.515 | 0.526 | 0.686 | 0.553 | 0.365
NCI-H1563 |  |  |  |  | 0.736 | 0.701 | 0.801 | 0.678 |  |  |  |  |  |  |  |  |  |  |  | 
NCI-H1703 |  |  |  |  |  |  |  |  | 1.28 | 1.18 | 1.21 | 0.88 | 0.429 | 0.461 | 0.486 | 0.392 |  |  |  | 
NCI-H1792 |  |  |  |  | 0.636 | 0.661 | 0.667 | 0.524 | 0.611 | 0.673 | 0.587 | 0.377 | 0.463 | 0.329 | 0.39 | 0.345 | 0.493 | 0.504 | 0.455 | 0.394
SW 900 | 0.535 | 0.525 | 0.536 | 0.484 | 0.531 | 0.582 | 0.505 | 0.333 |  |  |  |  | 0.923 | 0.838 | 0.804 | 0.657 | 0.839 | 1.09 | 0.853 | 0.75
